# Experimental data from patent publication US5321030A, “Creatine analogs having antiviral activity” (priority 1991, dated 1994).
# Several values for one entry are separate records, joined by “and”; a condition that tells them apart may be missing. Equal entries are not always repeated.
# What was measured:
# [1] = test system: Murine Cytomegalovirus (MCMV), strain Smith; assay: Plaque reduction, murine cytomegalovirus in C127I cells; type: cell-based; details: Murid betaherpesvirus 1; 10 mg/ml
# [2] = test system: HCMV, strain C8805-37 (DHPG resistant); assay: microbe, parasite or virus in culture; type: cell-based, Human Cytomegalovirus; design: TI50 (CD50 ÷ ED50): unit not given beside the values; details: for # Plaques: virus control 11.5 ± 2.1
# [3] = test system: HSV-1; assay: Cytopathic effect (CPE) assay, HSV-1
# [4] = test system: HCMV, strain C8704 (DHPG resistant); assay: microbe, parasite or virus in culture; type: cell-based, Human Cytomegalovirus; design: TI50 (CD50 ÷ ED50): unit not given beside the values; details: for # Plaques: virus control 91.0 ± 8.4
structure (smiles),measurement,setting,value
"NC1=NCCN1CC(=O)O [cyclocreatine, 1-carboxymethyl-2-iminoimidazolidine]",inhibition at 10000 µg/mL,[1],53%
same,# Plaques,[2]; AM-285 156.25 μg/ml,9.5
same,# Plaques,[2]; AM-285 312.5 μg/ml,12
same,# Plaques,[2]; AM-285 625 μg/ml,10.5
same,# Plaques,[2]; AM-285 1250 μg/ml,9.5
same,# Plaques,[2]; AM-285 2500 μg/ml,6.5
same,# Plaques,[2]; AM-285 5000 μg/ml,1.5
same,# Plaques,[2]; AM-285 10000 μg/ml,0
same,inhibition at 156.25 µg/mL,"[2]; Human betaherpesvirus 5, MRC5, AM-285 156.25 μg/ml, read-out: % Reduction",0%
same,inhibition at 312.5 µg/mL,"[2]; Human betaherpesvirus 5, MRC5, AM-285 312.5 μg/ml, read-out: % Reduction",0%
same,inhibition at 625 µg/mL,"[2]; Human betaherpesvirus 5, MRC5, AM-285 625 μg/ml, read-out: % Reduction",0%
same,inhibition at 1250 µg/mL,"[2]; Human betaherpesvirus 5, MRC5, AM-285 1250 μg/ml, read-out: % Reduction",0%
same,inhibition at 2500 µg/mL,"[2]; Human betaherpesvirus 5, MRC5, AM-285 2500 μg/ml, read-out: % Reduction",43%
same,inhibition at 5000 µg/mL,"[2]; Human betaherpesvirus 5, MRC5, AM-285 5000 μg/ml, read-out: % Reduction",87%
same,inhibition at 10000 µg/mL,"[2]; Human betaherpesvirus 5, MRC5, AM-285 10000 μg/ml, read-out: % Reduction",100%
same,EC50,"[2]; Human betaherpesvirus 5, MRC5, MRC-5 cells, Table 7, read-out: ED50 (the source's name)",2780 µg/mL
same,TI50 (CD50 ÷ ED50),"[2]; MRC-5 cells, Table 7",> 3.6
same,EC50,"[3]; Human alphaherpesvirus 1, Vero, read-out: 50% effective dose (ED50)",1270 µg/mL and ~9 mM
same,IC20,"[3]; Human alphaherpesvirus 1, Vero, read-out: concentration required for ~20% inhibition",35 mM
same,EC65,"[3]; Human alphaherpesvirus 1, Vero, read-out: dose required to inhibit cytopathogenicity by 65%",35 mM
same,"effect on percent monolayer cell death, second set of experiments","[3]; Vero cells, 0-200 PFU, series of concentrations",consistent dose-dependent inhibition
same,dose response against cytopathogenicity,"[3]; Vero cells, 0.31-5.0 mg/ml, FIG. 16",shows a dose response
same,effect on cytopathic effect,"[3]; contact-inhibited A459 cells, FIG. 7A",inhibited the cytopathic effect
same,effect on cytopathic effect,"[3]; contact-inhibited BalbC/3T3 cells, FIG. 3A",inhibited the cytopathic effect
same,effect on cytopathic effect,"[3]; serum-starved DU145 cells, FIG. 5A",inhibited the cytopathic effect
same,therapeutic index,[3]; serum-starved Vero cells,> 7.6
same,effect on cytopathic effect,"[3]; serum-starved Vero cells, 0.71-4.0 mg/ml, FIG. 1A",inhibited the cytopathic effect
same,# Plaques,[4]; AM 285 156.25 μg/ml,81
same,# Plaques,[4]; AM 285 312.5 μg/ml,65.5
same,# Plaques,[4]; AM 285 625 μg/ml,52.5
same,# Plaques,[4]; AM 285 1250 μg/ml,48.5
same,# Plaques,[4]; AM 285 2500 μg/ml,14.5
same,# Plaques,[4]; AM 285 5000 μg/ml,3.5
same,# Plaques,[4]; AM 285 10000 μg/ml,0
same,inhibition at 156.25 µg/mL,"[4]; Human betaherpesvirus 5, MRC5, AM 285 156.25 μg/ml, read-out: % Reduction",0%
same,inhibition at 312.5 µg/mL,"[4]; Human betaherpesvirus 5, MRC5, AM 285 312.5 μg/ml, read-out: % Reduction",28%
same,inhibition at 625 µg/mL,"[4]; Human betaherpesvirus 5, MRC5, AM 285 625 μg/ml, read-out: % Reduction",42%
same,inhibition at 1250 µg/mL,"[4]; Human betaherpesvirus 5, MRC5, AM 285 1250 μg/ml, read-out: % Reduction",47%
same,inhibition at 2500 µg/mL,"[4]; Human betaherpesvirus 5, MRC5, AM 285 2500 μg/ml, read-out: % Reduction",84%
same,inhibition at 5000 µg/mL,"[4]; Human betaherpesvirus 5, MRC5, AM 285 5000 μg/ml, read-out: % Reduction",96%
same,inhibition at 10000 µg/mL,"[4]; Human betaherpesvirus 5, MRC5, AM 285 10000 μg/ml, read-out: % Reduction",100%
same,EC50,"[4]; Human betaherpesvirus 5, MRC5, MRC-5 cells, Table 6, read-out: ED50 (the source's name)",900 µg/mL
same,TI50 (CD50 ÷ ED50),"[4]; MRC-5 cells, Table 6",> 11.1
